The source of these data is article PMC10482825 (Scientific Reports, 2023).

Data set [1] deals with C. albicans. Kind of data set: Radial diffusion assay. The data set is classed as cell-based, Candida albicans (TIMM, 1768). The settings on record: 5 µl of 500 µM per 3 mm well, 37 °C, mean ± SD. An excerpt:
(§1) The microbial strains used in this study were Bacillus subtilis (ATCC, 11774), Candida albicans (TIMM, 1768), Enterococcus faecalis (ATCC, 33186), Escherichia coli (ATCC, 11775), Klebsiella pneumoniae (ATCC, 13883), Methicillin-resistant Staphylococcus aureus (ATCC, BAA-41), Pseudomonas aeruginosa (ATCC, 10145), Salmonella enterica (ATCC, 14028), Serratia marcescens (ATCC, 13880), Staphylococcus aureus (ATCC, 25923) and Vibrio parahaemolyticus (ATCC, 17802). All microbial strains were cultivated overnight at 37 °C and 200 rpm, then subcultured and incubated for 3 h under the same incubation conditions to obtain the mid-logarithmic growth phase. The cultivated cells were washed twice with 10 mM Tris–HCl containing 5 mM D-glucose at pH 7.4 and suspended in the same buffer to be used in different assays, as previously described.
(§2) The antimicrobial activity spectra of the selected cryptides were screened against all the mentioned microbial pathogens, except V. parahaemolyticus, by radial diffusion assay as previously described, with slight modifications. […] The plates were then incubated for 18 h, and the antimicrobial activities were measured in the absolute unit (AU), as previously described. […]
(§3) plate. The plates were then incubated for 12 h at 37 °C and antimicrobial activities were measured in the term of absolute unit (A.U). […]

The subject of data set [2] is S. marcescens. Kind of data set: Radial diffusion assay. The data set is classed as cell-based, Serratia marcescens (ATCC, 13880). As to conditions: 5 µl of 500 µM per 3 mm well, 37 °C, mean ± SD.
From the text: as §1, §2, §3

For data set [3], the system named is S. epidermidis. Kind of data set: Radial diffusion assay. As to conditions: 5 µl of 500 µM per 3 mm well, 37 °C, mean ± SD. The data set is classed as cell-based.
From the text: The antimicrobial activity spectra of the selected cryptides were screened against all the mentioned microbial pathogens, except V. parahaemolyticus, by radial diffusion assay as previously described, with slight modifications. We aimed to test different categories of pathogens on the WHO global priority due to their growing resistance to the available antibiotics such as P. aeruginosa, E. coli and K. pneumoniae in the critical category and Salmonella ssp. and S. aureus in the high category. Briefly, a total of 4 × 10^6 CFU of each pathogen was inoculated in 10 mL of an underlay agarose gel [0.03% w/v tryptone soy broth (TSB) medium, 1% w/v agarose and 0.02% v/v Tween 20 in 10 mM Tris–HCl] that was then poured into a 100-mm petri dish. After agarose solidification, 3 mm-diameter wells were punched by a sterile cork borer and 5 µl of 500 µM stock solution from each cryptide was added to each well. Melittin and acidified water were used as positive and negative controls, respectively. […] The plates were then incubated for 18 h, and the antimicrobial activities were measured in the absolute unit (AU), as previously described. […]
as §3

In data set [4] the test system is E. coli K-1. Kind of data set: Radial diffusion assay. It counts as cell-based, Escherichia coli (ATCC, 11775). As to conditions: 5 µl of 500 µM per 3 mm well, 37 °C, mean ± SD.
From the text: as §1, §2, §3

The subject of data set [5] is HEK-293. Kind of data set: MTT cytotoxicity on normal cells. The data set is classed as cell-based, human. The settings on record: 25 µM (highest tested concentration), 24 h, serum-free medium. The protocol: (§4) The used mammalian cell lines in our study were colorectal adenocarcinoma (Caco2, ATCC-HTB-37), colorectal carcinoma (HCT 116, ATCC-CCL-247), lung carcinoma (A549, ATCC- CCL-185), cervical cancer cells (HeLa, ATCC-CCL-2), neuroblastoma (SH-SY5Y, ATCC- CRL-2266), rhabdomyosarcoma (RD, ATCC- CCL-136) and human embryonic kidney cells (HEK 293, ATCC- CRL-1573). All the cells were maintained into Dulbecco’s Modified Eagle’s Medium (DMEM) supplemented with 10% heat-inactivated fetal bovine serum, 2 mM L-Glutamine, 100 U/ml penicillin–streptomycin (Pen/Strep) at 37 °C in 5% CO2 humidified incubator.
(§5) First, the cytotoxic effect of 24 h serum deprivation on all the selected cell lines was evaluated by MTT assay, following standard protocols. Briefly, cells were seeded and maintained at 37 °C and 5% CO2 in 24-well plates until they reached 75–80% confluency (zero time). Following washing twice with 1X PBS, cells were incubated in a serum-free medium for 24 h, under the same incubation conditions. The cell viability percentages were calculated and compared to zero time as 100% viability to nullify any possible effects of serum deprivation. Thence, the cell viability percentage of each cell line in response to 24 h treatment with different concentrations of each cryptide in serum-free medium was calculated. […] All the measured cell viability percentages were normalised against the corresponding negative controls.

Data set [6] is classed as cell-based. As to conditions: 24 h, serum-free medium, MTT, 37 °C, 5% CO2; mean ± SD; read-out: IC50 (µM) A459. The protocol: as §4, §5
Data set [7] concerns SH-SY5Y. The data set is classed as cell-based. As to conditions: 24 h, serum-free medium, MTT, 37 °C, 5% CO2; mean ± SD. The method, then: as §4, §5
Data set [8] concerns RD. It counts as cell-based. As to conditions: 24 h, serum-free medium, MTT, 37 °C, 5% CO2; mean ± SD. The protocol:
as §4, §5

For data set [9], the system named is HeLa. The data set is classed as cell-based, human. As to conditions: 24 h, serum-free medium, MTT, 37 °C, 5% CO2; mean ± SD. The protocol: as §4, §5
Data set [10] deals with Caco-2. The data set is classed as cell-based, human. As to conditions: 24 h, serum-free medium, MTT, 37 °C, 5% CO2; mean ± SD. The method, then: as §4, §5
Data set [11] concerns HCT 116. It counts as cell-based, human. The settings on record: 24 h, serum-free medium, MTT, 37 °C, 5% CO2; mean ± SD. The method, then: as §4, §5
Data set [12] relates to P. aeruginosa. Kind of data set: Radial diffusion assay. It counts as cell-based, Pseudomonas aeruginosa (ATCC, 10145). The settings on record: 5 µl of 500 µM per 3 mm well, 37 °C, mean ± SD.
From the text: as §1, §2, §3

The subject of data set [13] is MRSA. The data set can be described thus: Radial diffusion assay. The data set is classed as cell-based, Methicillin-resistant Staphylococcus aureus (ATCC, BAA-41). The settings on record: 5 µl of 500 µM per 3 mm well, 37 °C, mean ± SD.
From the text: as §1, §2, §3

Data set [14] deals with B. subtilis. Kind of data set: Radial diffusion assay. As to conditions: 5 µl of 500 µM per 3 mm well, 37 °C, mean ± SD. The data set is classed as cell-based, Bacillus subtilis (ATCC, 11774).
From the text: as §1, §2, §3

For data set [15], the system named is S. aureus. The data set can be described thus: Radial diffusion assay. The data set is classed as cell-based, Staphylococcus aureus (ATCC, 25923). As to conditions: 5 µl of 500 µM per 3 mm well, 37 °C, mean ± SD.
From the text: as §1, §2, §3

Data set [16] concerns S. enterica. Kind of data set: Radial diffusion assay. As to conditions: 5 µl of 500 µM per 3 mm well, 37 °C, mean ± SD. The data set is classed as cell-based, Salmonella enterica (ATCC, 14028).
From the text: as §1, §2, §3

For data set [17], the system named is K. pneumoniae. Kind of data set: Radial diffusion assay. It counts as cell-based, Klebsiella pneumoniae (ATCC, 13883). As to conditions: 5 µl of 500 µM per 3 mm well, 37 °C, mean ± SD.
From the text: as §1, §2, §3

The test system of data set [18] is E. faecalis. The data set can be described thus: Radial diffusion assay. It counts as cell-based, Enterococcus faecalis (ATCC, 33186). As to conditions: 5 µl of 500 µM per 3 mm well, 37 °C, mean ± SD.
From the text: as §1, §2, §3

Data set [19] has as its system bacterial pathogens. As to conditions: salt tolerance; cited from earlier work. The protocol:
For example, Pleurocidin is an AMP isolated from a marine flatfish Pseudopleuronectes americanus (Winter flounder) and has been reported to be active against bacterial pathogens at high NaCl concentrations, up to 625 mM[15]. This potential salt-insensi ...

As a reminder, the IC50 is the concentration needed to halve the response being measured. `CC[C@H](C)[C@H](NC(=O)CN)C(=O)NCC(=O)N[C@@H](C)C(=O)N[C@H](C(=O)N[C@@H](CC(C)C)C(=O)N[C@@H](CCCCN)C(=O)N[C@H](C(=O)N[C@@H](CC(C)C)C(=O)N[C@H](C(=O)N[C@H](C(=O)NCC(=O)N[C@@H](CC(C)C)C(=O)N1CCC[C@H]1C(=O)N[C@@H](C)C(=O)N[C@@H](CC(C)C)C(=O)N[C@H](C(=O)N[C@@H](CO)C(=O)N[C@@H](Cc1c[nH]c2ccccc12)C(=O)N[C@H](C(=O)N[C@@H](CCCCN)C(=O)N[C@@H](CCCNC(=N)N)C(=O)N[C@@H](CCCCN)C(=O)N[C@@H](CCCNC(=N)N)C(=O)N[C@@H](CCC(N)=O)C(=O)N[C@@H](CCC(N)=O)C(N)=O)[C@@H](C)CC)[C@@H](C)CC)[C@@H](C)O)[C@@H](C)O)C(C)C)C(C)C` [Melittin, reference compound]: the “Antifungal activity (inhibition zone) C. albicans” value in [1] is 14.2 ± 1.4 A.U. Besides, the “Antimicrobial activity (inhibition zone) S. marcescens” value in data set [2] was determined as 7.7 ± 1 A.U. In addition, the “Antimicrobial activity (inhibition zone) S. epidermidis” value in [3] is 10.4 ± 1.2 A.U. Besides, the “Antimicrobial activity (inhibition zone) E. coli K-1” value in data set [4] was determined as 6.5 ± 0.9 A.U. For the same compound, in data set [5], the “Cell death of HEK-293” value is listed as 78.7%. Further, the IC50 came out at 2.3 ± 0.6 µM in data set [6]; 1.7 ± 1 µM in data set [7]; 2.4 ± 0.5 µM in data set [8]; 0.9 ± 0.1 µM in [9]; 1.2 ± 0.9 µM in data set [10]; 2.1 ± 0.2 µM in data set [11]. In data set [12], the “Antimicrobial activity (inhibition zone) P. aeruginosa” value is 6 ± 0.9 A.U. Also, the “Antimicrobial activity (inhibition zone) MRSA” value in data set [13] turned out to be 11.8 ± 1.3 A.U. In addition, the “Antimicrobial activity (inhibition zone) B. subtilis” value in data set [14] is 21.8± 3.1 A.U. Besides, the “Antimicrobial activity (inhibition zone) S. aureus” value in data set [15] is on record as 41.5 ± 2.5 A.U. Also, the “Antimicrobial activity (inhibition zone) S. enterica” value in [16] was 7.8 ± 2 A.U. Further, the “Antimicrobial activity (inhibition zone) K. pneumoniae” value in data set [17] amounted to 11.8 ± 1.3 A.U. For the same compound, the “Antimicrobial activity (inhibition zone) E. faecalis” value in data set [18] worked out at 11.8 ± 1.3 A.U.
As for “Pleurocidin (GWGSFFKKAAHVGKHVGKAALTHYL; UniProt P81941 23-47, looked up) [AMP isolated from a marine flatfish Pseudopleuronectes americanus (Winter flounder)]”, the “NaCl concentration up to which active against bacterial pathogens” value in data set [19] is recorded as “up to 625 mM”.
